Measured values: US4698350A, “1-ethyl-6-fluoro-1,4-dihydro- 7-(2,6-dimethyl-4-pyridinyl)-4-oxo-3-quinolinecarboxylic acid and antibacterial use thereof” (Sterling Drug Inc., priority 1984, dated 1987)
Values after ≈ are worked out from the molar mass of the structure shown. Like-named read-outs stand apart in the source and are kept apart here.

Experiments:
A. actinomycetemcomitans = assay: Agar dilution MIC, anaerobic microorganisms; assay type: cell-based; settings: Aggregatibacter actinomycetemcomitans, 48 h
Procedure: (§1) 1. Maintenance. Prior to use, all strains were maintained in the lyophilized state. During the study, cultures were examined on blood agar basal medium supplemented with 5.0% (v/v) defibrinated rabbit blood. Culture transfer was accomplished weekly with all cultures being incubated in an anaerobic atmosphere (GasPak jar; BBL).
(§2) 2. Agar Medium. The basal test medium consisted of trypticase soy agar (40 g), yeast extract (1 g), glucose (2 g) and 960 ml of distilled water pH 7.2. [Mashimo et al., J. Clin. Micro. 17, 187-191 (1983)]. Subsequent to sterilization and cooling to 50° C., the medium was supplemented with 4% (v/v) defibrinated rabbit blood and 0.5 μg/ml menadione (Vitamin K3) The agent under evaluation was also added at this time to the concentration desired. Subsequent to pouring of the plates, they were permitted to dry at 4° C. for 24 hr.
(§3) 3. Determination of Agent MIC. The minimal inhibitory concentration (MIC) of the various test agents was determined using an agar dilution technique. Agents and appropriate reference compounds were added to achieve a series of concentrations ranging between 32 μg/ml and 0.007 μg/ml. The inocula were prepared from 96-hr. cultures grown on the maintenance medium. Subsequent to a purity evaluation, colonies were removed and suspended in trypticase soy broth supplemented with 5 μg/ml menadione and 2% lysed rabbit blood filtrate to achieve an OD650 of 0.1 (this corresponded to approximately 10^8 cells/ml). Cultures were inoculated aerobically on the modified trypticase soy blood agar plates by use of a Steer's replicator (which delivers about 10^5 cells per spot). The plates were allowed to dry for a time not exceeding 30 min. and then incubated at 37° C. under an atmosphere of […], 10% H2 and 5% CO2 maintained in an anaerobic chamber (Coy Manufacturing Co.) for 48 hr. The MIC was defined as the lowest concentration completely inhibiting growth.
(§4) Tetracycline stock solutions (1 mg/ml) were made subsequent to dissolution in water. Stock solutions (1 mg/ml) of the remaining test compounds were made subsequent to dissolution in 1/10 N NaOH.

A. viscosus = assay: Agar dilution MIC, anaerobic microorganisms; assay type: cell-based; settings: Actinomyces viscosus, 48 h
Procedure: as §1, §2, §3, §4

B. fragilis = assay: Agar dilution MIC, anaerobic microorganisms; assay type: cell-based; settings: Bacteroides fragilis, 48 h
Procedure: as §1, §2, §3, §4

B. gingivalis = assay: Agar dilution MIC, anaerobic microorganisms; assay type: cell-based; settings: Porphyromonas gingivalis, 48 h
Procedure: as §1, §2, §3, §4

B. intermedius = assay: Agar dilution MIC, anaerobic microorganisms; assay type: cell-based; settings: Prevotella intermedia, 48 h
Procedure: as §1, §2, §3, §4

B. melaninogenicus = assay: Agar dilution MIC, anaerobic microorganisms; assay type: cell-based; settings: 48 h
Procedure: as §1, §2, §3, §4

B. oralis = assay: Agar dilution MIC, anaerobic microorganisms; assay type: cell-based; settings: Hoylesella oralis, 48 h
Procedure: as §1, §2, §3, §4

Campylobacter sputorum = assay: Agar dilution MIC, anaerobic microorganisms; assay type: cell-based; settings: 48 h
Procedure: as §1, §2, §3, §4

Capnocytophaga suptigena = assay: Agar dilution MIC, anaerobic microorganisms; assay type: cell-based; settings: 48 h
Procedure: as §1, §2, §3, §4

Eikenella corrodens = assay: Agar dilution MIC, anaerobic microorganisms; assay type: cell-based; settings: 48 h
Procedure: as §1, §2, §3, §4

F. nucleatum = assay: Agar dilution MIC, anaerobic microorganisms; assay type: cell-based; settings: Fusobacterium nucleatum, 48 h
Procedure: as §1, §2, §3, §4

F. polymorphum = assay: Agar dilution MIC, anaerobic microorganisms; assay type: cell-based; settings: 48 h
Procedure: as §1, §2, §3, §4

Wolinella recta = assay: Agar dilution MIC, anaerobic microorganisms; assay type: cell-based; settings: Campylobacter rectus, 48 h
Procedure: as §1, §2, §3, §4

[1] = system: all thirteen of the target anaerobic microorganisms; assay: Antimicrobial activity against anaerobic microorganisms; assay type: cell-based
Procedure: as §1, §2, §3, §4

periodontal diseases = settings: cited from earlier work; for usefulness in treating periodontal disease (in words): Genco 1981
[2] = A. actinomycetemcomitans, read-out: MIC
[3] = B. melaninogenicus, read-out: MIC
[4] = Capnocytophaga suptigena, read-out: MIC

Row | SMILES | MIC (A. actinomycetemcomitans; [2]) [µg/mL] | MIC (A. viscosus; A. viscosus, read-out: MIC) [µg/mL] | MIC (B. fragilis; B. fragilis, read-out: MIC) [µg/mL] | MIC (B. gingivalis; B. gingivalis, read-out: MIC) [µg/mL] | MIC (B. intermedius; B. intermedius, read-out: MIC) [µg/mL] | MIC (B. melaninogenicus; [3]) [µg/mL] | MIC (B. oralis; B. oralis, read-out: MIC) [µg/mL] | MIC (Campylobacter sputorum) [µg/mL] | MIC (Capnocytophaga suptigena; [4]) [µg/mL] | MIC (Eikenella corrodens; read-out: MIC) [µg/mL] | MIC (F. nucleatum; F. nucleatum, read-out: MIC) [µg/mL] | MIC (F. polymorphum; F. polymorphum, read-out: MIC) [µg/mL] | MIC (Wolinella recta) [µg/mL] | antimicrobial activity (in words) [1] | usefulness in treating periodontal disease (in words) (periodontal diseases) | activity against microorganisms considered to participate in periodontal disease (in words) (periodontal diseases) | other results
1 | CCn1cc(C(=O)O)c(=O)c2cc(F)c(N3CCN(C)CC3)cc21 [50,150, 1-ethyl-6-fluoro-1,4-dihydro-7-(4-methyl-1-piperazinyl)-4-oxo-3-quinolinecarboxylic acid] | 0.06 (≈ 0.18 µM) | > 10 | 8 (≈ 24 µM) | 4 (≈ 12 µM) | 0.5 (≈ 1.5 µM) | 4 (≈ 12 µM) | 4 (≈ 12 µM) | 4 (≈ 12 µM) | 0.25 (≈ 0.75 µM) | 4 (≈ 12 µM) | 8 (≈ 24 µM) | 8 (≈ 24 µM) | 0.25 (≈ 0.75 µM) | less active |  |  | 
2 | Cc1ncc([N+](=O)[O-])n1CCO [metronidazole] |  |  |  |  |  |  |  |  |  |  |  |  |  |  | particularly useful | not active against all the microorganisms | 
3 | CN(C)C1C(=O)C(C(N)=O)=C(O)C2(O)C(=O)C3=C(O)c4c(O)cccc4C(C)(O)C3CC12 (centres unmarked) [9,424] |  |  |  |  |  |  |  |  |  |  |  |  |  |  | particularly useful | not active against all the microorganisms | MIC (A. actinomycetemcomitans): 1 µg/mL (≈ 2.25 µM); MIC (A. viscosus): 2 µg/mL (≈ 4.5 µM); MIC (B. fragilis): 1 µg/mL (≈ 2.25 µM); MIC (B. gingivalis): 0.12 µg/mL (≈ 0.27 µM); MIC (B. intermedius): 2 µg/mL (≈ 4.5 µM); MIC (B. melaninogenicus): 0.5 µg/mL (≈ 1.13 µM); MIC (B. oralis): 0.12 µg/mL (≈ 0.27 µM); MIC (Capnocytophaga suptigena; Capnocytophaga): 1 µg/mL (≈ 2.25 µM); MIC (Eikenella corrodens): 2 µg/mL (≈ 4.5 µM); MIC (F. nucleatum): 0.75 µg/mL (≈ 1.69 µM); MIC (F. polymorphum): 0.12 µg/mL (≈ 0.27 µM)

Further lines, with some results ahead:

Row | MIC (A. actinomycetemcomitans; [2]) [µg/mL] | MIC (A. viscosus; A. viscosus, read-out: MIC) [µg/mL] | MIC (B. fragilis; B. fragilis, read-out: MIC) [µg/mL] | MIC (B. gingivalis; B. gingivalis, read-out: MIC) [µg/mL] | MIC (B. intermedius; B. intermedius, read-out: MIC) [µg/mL] | MIC (B. melaninogenicus; [3]) [µg/mL] | MIC (B. oralis; B. oralis, read-out: MIC) [µg/mL] | MIC (Campylobacter sputorum) [µg/mL] | MIC (Capnocytophaga suptigena; [4]) [µg/mL] | MIC (Eikenella corrodens; read-out: MIC) [µg/mL] | MIC (F. nucleatum; F. nucleatum, read-out: MIC) [µg/mL] | MIC (F. polymorphum; F. polymorphum, read-out: MIC) [µg/mL] | MIC (Wolinella recta) [µg/mL] | SMILES | antimicrobial activity (in words) [1] | usefulness in treating periodontal disease (in words) (periodontal diseases) | activity against microorganisms considered to participate in periodontal disease (in words) (periodontal diseases) | other results
4 | 0.06 (≈ 0.188 µM) | > 10 | > 10 | 4 (≈ 12.5 µM) | 0.5 (≈ 1.57 µM) | 4 (≈ 12.5 µM) | 4 (≈ 12.5 µM) | 2 (≈ 6.26 µM) | 0.5 (≈ 1.57 µM) | 4 (≈ 12.5 µM) | 8 (≈ 25.1 µM) | > 10 | 0.12 (≈ 0.376 µM) | CCn1cc(C(=O)O)c(=O)c2cc(F)c(N3CCNCC3)cc21 [50,297, 1-ethyl-6-fluoro-1,4-dihydro-4-oxo-7-(1-piperazinyl)-3-quinolinecarboxylicacid] | less active |  |  | 
5 | 0.12 (≈ 0.408 µM) | > 10 | > 10 | > 10 | 0.5 (≈ 1.7 µM) | 8 (≈ 27.2 µM) | > 10 | > 10 | 1 (≈ 3.4 µM) | 8 (≈ 27.2 µM) | > 10 | > 10 | 0.5 (≈ 1.7 µM) | CCn1cc(C(=O)O)c(=O)c2ccc(-c3ccncc3)cc21 [35,213, 1-ethyl-1,4-dihydro-4-oxo-7-(4-pyridinyl)-3-quinolinecarboxylic acid] |  |  |  | 
